Patent publication US8003083B2, “Benzylidene malonamide and salt thereof, ultraviolet ray absorbent, and agent for external application to the skin” (Shiseido Company, Ltd., priority 2006, dated 2011)

Experiments:
[1] = External appearance and low temperature storage of lotion and cream samples; assay type: physicochemical
Description: (§1) (a) lotion and (b) cream were prepared according to the following recipes. For the ultraviolet absorbent, benzilidene malonamide (bis-N,N′-[2-(2-hydroxyethoxy)ethyl]-4-methoxybenzilidene malonamide) of the present invention and, as a Comparison example, a water soluble ultraviolet absorbent sodium 2-hydroxy-4-methoxy-5-sulfoquisonium benzophenone were used.
(§2) The water phase and the alcohol phase were separately prepared and then mixed together.
(§3) Propylene glycol and the ultraviolet absorbent were dissolved in ion-exchanged water and the temperature was raised to 70° C. and maintained. The other ingredients were mixed, heated and melted, and the temperature was maintained at 70° C. (oil phase). The oil phase was added to the water phase and pre-emulsification was conducted; after a homomixer was used to emulsify the mixture homogeneously, the temperature was cooled down to 30° C. while thorough stirring was maintained.

[2] = Stability test for use in combination with an inorganic powder ultraviolet shielding agent; assay type: physicochemical; conditions: sunscreen cream with inorganic powders, ultraviolet absorbent 10.0 wt %, stored at 50° C. for two months, visual
Description: Sunscreen cream was prepared according to the following recipe; it was stored at 50° C. for two months and visually observed for discoloration to investigate the stability when used in combination with an inorganic powder ultraviolet shielding agent.

[3] = Photostability test, sunlight exposure; assay type: physicochemical; conditions: 80 MJ/m^2
Description: A solution of the ultraviolet absorbent of the present invention was exposed to sunlight for two weeks (sunlight exposure level 80 MJ/m^2) and then the residual ratio and changes in the appearance were investigated and the ultraviolet absorption spectrum was measured (solvent: water, concentration 10 ppm, optical path length 1 cm) by using a spectrophotometer; the ultraviolet absorption spectrum was integrated over a range of 290-400 nm to obtain the area value, which was compared with the value before the sunlight exposure.
Changes in the residual ratio and the area value of the ultraviolet absorption spectrum were evaluated based on the following criteria.
Δ: 70% or more and less than 90% of the value before the sunlight exposure.
X: Less than 70% of the value before the sunlight exposure.

[4] = Ultraviolet absorption spectrum measurement; assay type: physicochemical; conditions: solvent water, concentration 10 ppm, optical path length 1 cm, FIG. 1
Description: An ultraviolet absorption spectrum of the benzilidene malonamide obtained in Example 1 was measured (solvent: water, concentration 10 ppm, optical path length 1 cm) by using a spectrophotometer (V-560 from Jasco Co. Ltd.).

[5] = 405 nm visible light absorbance measurement; assay type: physicochemical; conditions: water, optical path length 1 cm
Description: For a Comparative example, sodium 2-hydroxy-4-methoxy-5-sulfoquisonium benzophenone, a conventional water soluble ultraviolet absorbent, was measured in the same manner.

Solubility in water = assay type: physicochemical
Description: Solubility in water was measured for the benzilidene malonamide of the present invention. For a Comparative example, sodium 2-hydroxy-4-methoxy-5-sulfoquisonium benzophenone was measured in the same manner.

[6] = system: degree of sunburn after exposure to direct sunlight; test: Ultraviolet prevention effect, actual use test on a beach in summer; assay type: in vivo, human
Description: An actual use test was conducted on a beach in summer. The same amount of sample was applied on the left and right halves of panelists' backs. The degree of sunburn after exposure to direct sunlight was evaluated based on the following criteria. The test was conducted with a group of 10 panelists.
Very effective: No or very little sunburn symptoms were observed.
Effective: A mild degree of sunburn symptoms were observed.
Not effective: A strong degree of sunburn symptoms were observed.
⊚: 80% or more of the subjects report “very effective” or “effective.”
◯: 50% or more and less than 80% of the subjects report “very effective” or “effective.”
∇: 30% or more and less than 50% of the subjects report “very effective” or “effective.”
X: Less than 30% of the subjects report “very effective” or “effective.”
as §1, §2, §3

[7] = system: flexor forearm skin of healthy male and female volunteers; test: Skin irritability test, 24-hour closed patch test; assay type: in vivo, human; conditions: ultraviolet absorbent 10 wt %, 20 volunteers
Description: This test was conducted by using the same sample as in Test example 4 (blend ratio of the ultraviolet absorbent was 10 wt %).
A Finn chamber was used to conduct the 24-hour closed patch test on the flexor forearm of healthy male and female volunteers; a group of 20 volunteers were used and the following evaluation criteria were used.
The average score was calculated and the evaluation was done based on the following criteria.
⊚: The average score is 0.
◯: The average score is more than 0 and less than 1.
Δ: The average score is 1 or more and less than 2.
X: The average score is 2 or more.

COc1ccc(C=C(C(=O)NCCOCCO)C(=O)NCCOCCO)cc1 [Benzilidene malonamide of formula (1), bis-N,N′-[2-(2-hydroxyethoxy)ethyl]-4-methoxybenzilidene malonamide]
External appearance ([1]; (b) Cream, blend ratio 1): White | External appearance ([1]; (b) Cream, blend ratio 5): White | External appearance ([1]; (b) Cream, blend ratio 10): White | Precipitation during low temperature storage ([1]; external preparations of Tables 3 and 4 (lotion and cream)): no precipitation of the ultraviolet absorbent was observed at all | Discoloration [2]: None | Changes in the area value of the ultraviolet absorption spectrum ([3]; 290-400 nm integrated, after sunlight for two weeks, water, 10 ppm, 1 cm): ⊚ (95% or more of the value before the sunlight exposure.) | Residual ratio ([3]; solution exposed to sunlight for two weeks): ⊚ (95% or more of the value before the sunlight exposure.) | Ultraviolet absorption spectrum (absorption capacity) [4]: superior absorption capacity over a wide ultraviolet wavelength region | Absorbance ([5]; concentration 10 wt %): 0 | Solubility (room temperature) (Solubility in water): 30 or more wt % | Ultraviolet prevention effect ([6]; (a) Lotion, blend ratio 1, 10 panelists): ⊚ (80% or more of the subjects report “very effective” or “effective.”) | Ultraviolet prevention effect ([6]; (a) Lotion, blend ratio 5, 10 panelists): ⊚ (80% or more of the subjects report “very effective” or “effective.”) | Ultraviolet prevention effect ([6]; (a) Lotion, blend ratio 10, 10 panelists): ⊚ (80% or more of the subjects report “very effective” or “effective.”) | Ultraviolet prevention effect ([6]; (b) Cream, blend ratio 1, 10 panelists): ⊚ (80% or more of the subjects report “very effective” or “effective.”) | Ultraviolet prevention effect ([6]; (b) Cream, blend ratio 5, 10 panelists): ⊚ (80% or more of the subjects report “very effective” or “effective.”) | Ultraviolet prevention effect ([6]; (b) Cream, blend ratio 10, 10 panelists): ⊚ (80% or more of the subjects report “very effective” or “effective.”) | Skin irritability patch test evaluation (average score) ([7]; Cream): ⊚ (The average score is 0.) | Skin irritability patch test evaluation (average score) ([7]; Lotion): ⊚ (The average score is 0.)

COc1cc(O)c(C(=O)c2ccccc2)cc1S(=O)(=O)[O-].[Na+] [sodium 2-hydroxy-4-methoxy-5-sulfoxonium benzophenone, reference compound]
Precipitation during low temperature storage ([1]; (a) Lotion, blend ratio 5): **Crystals precipitated during low temperature storage. | External appearance ([1]; (b) Cream, blend ratio 1): Yellow | External appearance ([1]; (b) Cream, blend ratio 5): Yellow** | Precipitation during low temperature storage ([1]; (b) Cream, blend ratio 5): **Crystals precipitated during low temperature storage. | Absorbance ([5]; concentration 0.1 wt %): 0.06 | Absorbance ([5]; concentration 1 wt %): 0.32 | Absorbance ([5]; concentration 6 wt %): 1.99
